In PubChem BioAssay AID743485 (Broad Institute, 2014):

What follows are molecules tested on Mycobacterium tuberculosis replicating, CFU count, imaging (assay: M. tuberculosis CFU reduction, CFU imaging, dry powder, dose response (AID 743485)).
In the case of `Cn1c(NC(=O)c2ccccc2)nc2c3ncccc3ccc21`, the AC90 is reported as < 8 µM. `Cn1c(NC(=O)c2ccccc2)nc2c3nccnc3ccc21` was tested, and the AC90 was < 16 µM. In the case of `Cn1c(NC(=O)c2ccccc2)nc2c3cnccc3ccc21`, the AC90 is reported as < 8 µM. In the case of `Cn1c(NC(=O)c2ccccc2)nc2c3ccncc3ccc21`, the AC90 is reported as < 8 µM.
